From ChEMBL document CHEMBL3885881, “DrugMatrix”
Values joined by “and” are separate entries in the source; they are usually repeats but may differ in a detail not shown here. Equal values may be shown once.

Species on record: Rattus norvegicus
Assay type: toxicity, organism-based, Sprague-Dawley
Conditions: in vivo, sc, 24 h, route mini-PUMP - SUBCUTANEOUS, time 1 day, vehicle 100 % SALINE; for ALANINE AMINOTRANSFERASE / ALBUMIN / ALKALINE PHOSPHATASE / ASPARTATE AMINOTRANSFERASE / BLOOD UREA NITROGEN / CARBON DIOXIDE / CHLORIDE / CHOLESTEROL / CREATININE / GLUCOSE / LACTATE DEHYDROGENASE / LIPASE / PHOSPHORUS / POTASSIUM / SODIUM / TOTAL BILIRUBIN / TOTAL PROTEIN / URIC ACID / CREATINE PHOSPHOKINASE: tissue Plasma
[1] = 0 mg/kg, vehicle control, tissue Blood, dose level Control
[2] = 0 mg/kg, vehicle control, dose level Control
[3] = […], tissue Blood, dose 0.065 mg/Kg, dose level High
[4] = […], dose 0.065 mg/Kg, dose level High
[5] = 0.5 mg/kg, tissue Blood, dose level High
[6] = […], tissue Blood, dose 0.72 mg/Kg, dose level High
[7] = […], dose 0.72 mg/Kg, dose level High

C[C@]12CCC(=O)C=C1CC[C@@H]1[C@@H]2[C@@H](O)C[C@]2(C=O)[C@@H](C(=O)CO)CC[C@@H]12 [ALDOSTERONE]
ABSOLUTE EOSINOPHIL [1]: 26.17 CELLS/uL | ABSOLUTE LYMPHOCYTE [1]: 10985.83 CELLS/uL | ABSOLUTE MONOCYTE [1]: 234.5 CELLS/uL | ABSOLUTE SEGMENTED NEUTROPHIL [1]: 1753.5 CELLS/uL | BASOPHIL [1]: 0% | EOSINOPHIL [1]: 0.17% | ERYTHROCYTE COUNT [1]: 5.64 x10E6/uL | HEMATOCRIT [1]: 34.52% | HEMOGLOBIN [1]: 12.68 G/DL | LEUKOCYTE COUNT [1]: 13 x10E3/uL | LYMPHOCYTE [1]: 84.5% | MEAN CORPUSCULAR HEMOGLOBIN [1]: 22.5 pg | MEAN CORPUSCULAR HEMOGLOBIN CONCENTRATION [1]: 36.78 G/DL | MEAN CORPUSCULAR VOLUME [1]: 61.18 fL | MONOCYTE [1]: 1.83% | NEUTROPHIL [1]: 13.5% | NUCLEATED RED BLOOD CELLS [1]: 0.17 /100WBC | PLATELET COUNT [1]: 679.17 x10E3/uL | ALANINE AMINOTRANSFERASE [2]: 42.67 u/L | ALBUMIN [2]: 3.77 G/DL | ALKALINE PHOSPHATASE [2]: 291.17 u/L | ASPARTATE AMINOTRANSFERASE [2]: 74.5 u/L | BLOOD UREA NITROGEN [2]: 15.33 mg/dL | CARBON DIOXIDE [2]: 30 mmol/L | CHLORIDE [2]: 100.83 MEQ/L | CHOLESTEROL [2]: 65.33 mg/dL | CREATININE [2]: 0.15 mg/dL | GLUCOSE [2]: 179.83 mg/dL | LACTATE DEHYDROGENASE [2]: 162.67 u/L | LIPASE [2]: 8.5 u/L | PHOSPHORUS [2]: 12.2 mg/dL | POTASSIUM [2]: 5.73 MEQ/L | SODIUM [2]: 144.7 MEQ/L | TOTAL BILIRUBIN [2]: 0.15 mg/dL | TOTAL PROTEIN [2]: 5.87 G/DL | URIC ACID [2]: 1.93 mg/dL | ABSOLUTE EOSINOPHIL [3]: 35 CELLS/uL | ABSOLUTE LYMPHOCYTE [3]: 9989.33 CELLS/uL | ABSOLUTE MONOCYTE [3]: 255.33 CELLS/uL | ABSOLUTE SEGMENTED NEUTROPHIL [3]: 2453.67 CELLS/uL | BASOPHIL [3]: 0% | EOSINOPHIL [3]: 0.33% | ERYTHROCYTE COUNT [3]: 5.74 x10E6/uL | HEMATOCRIT [3]: 34.13% | HEMOGLOBIN [3]: 12.57 G/DL | LEUKOCYTE COUNT [3]: 12.73 x10E3/uL | LYMPHOCYTE [3]: 78.33% | MEAN CORPUSCULAR HEMOGLOBIN [3]: 21.87 pg | MEAN CORPUSCULAR HEMOGLOBIN CONCENTRATION [3]: 36.77 G/DL | MEAN CORPUSCULAR VOLUME [3]: 59.43 fL | MONOCYTE [3]: 2.33% | NEUTROPHIL [3]: 19% | NUCLEATED RED BLOOD CELLS [3]: 0.33 /100WBC | PLATELET COUNT [3]: 980 x10E3/uL | ALANINE AMINOTRANSFERASE [4]: 37.33 u/L | ALBUMIN [4]: 3.87 G/DL | ALKALINE PHOSPHATASE [4]: 321.67 u/L | ASPARTATE AMINOTRANSFERASE [4]: 76 u/L | BLOOD UREA NITROGEN [4]: 11.67 mg/dL | CARBON DIOXIDE [4]: 27.67 mmol/L | CHLORIDE [4]: 101.33 MEQ/L | CHOLESTEROL [4]: 65.33 mg/dL | CREATININE [4]: 0.14 mg/dL | GLUCOSE [4]: 206.67 mg/dL | LACTATE DEHYDROGENASE [4]: 145.67 u/L | LIPASE [4]: 9 u/L | PHOSPHORUS [4]: 13.27 mg/dL | POTASSIUM [4]: 5.08 MEQ/L | SODIUM [4]: 146.53 MEQ/L | TOTAL BILIRUBIN [4]: 0.17 mg/dL | TOTAL PROTEIN [4]: 5.9 G/DL | URIC ACID [4]: 2.27 mg/dL

CC[C@H](C)[C@H](NC(=O)[C@H](Cc1ccc(O)cc1)NC(=O)[C@@H](NC(=O)[C@H](CCCNC(=N)N)NC(=O)[C@@H](N)CC(=O)O)C(C)C)C(=O)N[C@@H](Cc1cnc[nH]1)C(=O)N1CCC[C@H]1C(=O)N[C@@H](Cc1ccccc1)C(=O)O [ANGIOTENSIN II]
ABSOLUTE SEGMENTED NEUTROPHIL [1]: 1753.5 CELLS/uL | BASOPHIL [1]: 0.4% and 0% | EOSINOPHIL [1]: 0.3% and 0.17% | ERYTHROCYTE COUNT [1]: 6.25 x10E6/uL and 5.64 x10E6/uL | HEMATOCRIT [1]: 41.8% and 34.52% | HEMOGLOBIN [1]: 13.33 G/DL and 12.68 G/DL | LEUKOCYTE COUNT [1]: 11.55 x10E3/uL and 13 x10E3/uL | MEAN CORPUSCULAR HEMOGLOBIN [1]: 21.37 pg and 22.5 pg | MEAN CORPUSCULAR HEMOGLOBIN CONCENTRATION [1]: 31.93 G/DL and 36.78 G/DL | MEAN CORPUSCULAR VOLUME [1]: 66.93 fL and 61.18 fL | MONOCYTE [1]: 2.4% and 1.83% | NEUTROPHIL [1]: 23.4% and 13.5% | NUCLEATED RED BLOOD CELLS [1]: 0.17 /100WBC | PLATELET COUNT [1]: 1265.33 x10E3/uL and 679.17 x10E3/uL | ALBUMIN [2]: 3.63 G/DL and 3.77 G/DL | ALKALINE PHOSPHATASE [2]: 385.33 u/L and 291.17 u/L | ASPARTATE AMINOTRANSFERASE [2]: 79.33 u/L and 74.5 u/L | BLOOD UREA NITROGEN [2]: 13.33 mg/dL and 15.33 mg/dL | CARBON DIOXIDE [2]: 40.67 mmol/L and 30 mmol/L | CHOLESTEROL [2]: 86.33 mg/dL and 65.33 mg/dL | CREATINE PHOSPHOKINASE [2]: 190.33 u/L | CREATININE [2]: 0.4 mg/dL and 0.15 mg/dL | GLUCOSE [2]: 165.67 mg/dL and 179.83 mg/dL | LACTATE DEHYDROGENASE [2]: 103.33 u/L and 162.67 u/L | PHOSPHORUS [2]: 11.7 mg/dL and 12.2 mg/dL | POTASSIUM [2]: 5.5 MEQ/L and 5.73 MEQ/L | SODIUM [2]: 145 MEQ/L and 144.7 MEQ/L | TOTAL BILIRUBIN [2]: 0.27 mg/dL and 0.15 mg/dL | URIC ACID [2]: 1 mg/dL and 1.93 mg/dL | ABSOLUTE BASOPHIL [5]: 13.3 cells/µL | ABSOLUTE EOSINOPHIL [5]: 46.7 cells/µL | ABSOLUTE LYMPHOCYTE [5]: 5400 cells/µL | ABSOLUTE MONOCYTE [5]: 230 cells/µL | BASOPHIL [5]: 0.13% | EOSINOPHIL [5]: 0.6% | ERYTHROCYTE COUNT [5]: 6.26 x10E6/uL | HEMATOCRIT [5]: 42.23% | HEMOGLOBIN [5]: 13.53 G/DL | LEUKOCYTE COUNT [5]: 7.88 x10E3/uL | MEAN CORPUSCULAR HEMOGLOBIN [5]: 21.63 pg | MEAN CORPUSCULAR HEMOGLOBIN CONCENTRATION [5]: 32.03 G/DL | MEAN CORPUSCULAR VOLUME [5]: 67.47 fL | MONOCYTE [5]: 2.8% | NEUTROPHIL [5]: 26.93% | PLATELET COUNT [5]: 1308.33 x10E3/uL | ALBUMIN (0.5 mg/kg, dose level High): 3.93 G/DL | ALKALINE PHOSPHATASE (0.5 mg/kg, dose level High): 341.33 u/L | ASPARTATE AMINOTRANSFERASE (0.5 mg/kg, dose level High): 74 u/L | BLOOD UREA NITROGEN (0.5 mg/kg, dose level High): 14 mg/dL | CARBON DIOXIDE (0.5 mg/kg, dose level High): 42.67 mmol/L | CHOLESTEROL (0.5 mg/kg, dose level High): 106.33 mg/dL | CREATINE PHOSPHOKINASE (0.5 mg/kg, dose level High): 299.33 u/L | CREATININE (0.5 mg/kg, dose level High): 0.5 mg/dL | GLUCOSE (0.5 mg/kg, dose level High): 169.33 mg/dL | LACTATE DEHYDROGENASE (0.5 mg/kg, dose level High): 65.33 u/L | PHOSPHORUS (0.5 mg/kg, dose level High): 11.73 mg/dL | POTASSIUM (0.5 mg/kg, dose level High): 5.2 MEQ/L | SODIUM (0.5 mg/kg, dose level High): 146.33 MEQ/L | TOTAL BILIRUBIN (0.5 mg/kg, dose level High): 0.2 mg/dL | URIC ACID (0.5 mg/kg, dose level High): 0.93 mg/dL | ABSOLUTE EOSINOPHIL [6]: 30.33 CELLS/uL | ABSOLUTE LYMPHOCYTE [6]: 10495 CELLS/uL | ABSOLUTE MONOCYTE [6]: 212 CELLS/uL | ABSOLUTE SEGMENTED NEUTROPHIL [6]: 2262.67 CELLS/uL | BASOPHIL [6]: 0% | EOSINOPHIL [6]: 0.33% | ERYTHROCYTE COUNT [6]: 6.56 x10E6/uL | HEMATOCRIT [6]: 38.97% | HEMOGLOBIN [6]: 14.37 G/DL | LEUKOCYTE COUNT [6]: 13 x10E3/uL | MEAN CORPUSCULAR HEMOGLOBIN [6]: 21.9 pg | MEAN CORPUSCULAR HEMOGLOBIN CONCENTRATION [6]: 36.87 G/DL | MEAN CORPUSCULAR VOLUME [6]: 59.37 fL | MONOCYTE [6]: 1.67% | NEUTROPHIL [6]: 17.67% | NUCLEATED RED BLOOD CELLS [6]: 0.33 /100WBC | PLATELET COUNT [6]: 1167.67 x10E3/uL | ALBUMIN [7]: 4 G/DL | ALKALINE PHOSPHATASE [7]: 462 u/L | ASPARTATE AMINOTRANSFERASE [7]: 98.67 u/L | BLOOD UREA NITROGEN [7]: 19 mg/dL | CARBON DIOXIDE [7]: 32 mmol/L | CHOLESTEROL [7]: 87 mg/dL | CREATININE [7]: 0.14 mg/dL | GLUCOSE [7]: 171 mg/dL | LACTATE DEHYDROGENASE [7]: 143.33 u/L | PHOSPHORUS [7]: 13.13 mg/dL | POTASSIUM [7]: 6.48 MEQ/L | SODIUM [7]: 141.6 MEQ/L | TOTAL BILIRUBIN [7]: 0.2 mg/dL | URIC ACID [7]: 2.37 mg/dL
